Measured values taken from patent US10202361B2, “Pyridazinones as herbicides” (E I DU PONT DE NEMOURS AND COMPANY, priority 2014, dated 2019).

How the values were obtained:
Assay type in all cases: in vivo
[1] = system: barnyardgrass (Echinochloa crus-galli); assay: Test C pre-/postemergence greenhouse herbicide test; conditions: Barnyardgrass, Preemergence
Outline: (§1)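 Visual ratings, 0 = no effect, 100 = complete control, vs untreated controls at 13–15 d. Pre: seeds in loam/sand. Post: 2–18 cm plants (1–4 leaf), peat/vermiculite mix. Surfactant-containing solvent formulation; greenhouse.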

[2] = system: blackgrass (Alopecurus myosuroides); assay: as above; conditions: Alopecurus myosuroides, pre-emergence, Blackgrass, Preemergence, read-out: Plant response rating
Outline: as §1

[3] = system: crabgrass, Large (large crabgrass, Digitaria sanguinalis); assay: as above; conditions: Digitaria sanguinalis, pre-emergence, Crabgrass, Large, Preemergence, read-out: Plant response rating
Outline: as §1

[4] = system: galium (catchweed bedstraw, Galium aparine); assay: as above; conditions: pre-emergence, Galium, Preemergence, read-out: Plant response rating
Outline: as §1

[5] = system: morningglory (Ipomoea coccinea); assay: as above; conditions: Morningglory, Preemergence
Outline: as §1

[6] = system: ragweed (common ragweed, Ambrosia elatior); assay: as above; conditions: Ambrosia artemisiifolia, pre-emergence, Ragweed, Preemergence, read-out: Plant response rating
Outline: as §1

[7] = system: ryegrass, Italian (Italian ryegrass, Lolium multiflorum); assay: as above; conditions: Lolium multiflorum, pre-emergence, Ryegrass, Italian, Preemergence, read-out: Plant response rating
Outline: as §1

[8] = system: waterhemp (common waterhemp, Amaranthus rudis); assay: as above; conditions: Waterhemp, Preemergence
Outline: as §1

[9] = system: wheat (winter wheat, Triticum aestivum); assay: as above; conditions: Triticum aestivum, pre-emergence, Wheat, Preemergence, read-out: Plant response rating
Outline: as §1

[10] = system: poinsettia, wild (wild poinsettia, Euphorbia heterophylla); assay: Test E pre-/postemergence greenhouse herbicide test; conditions: Preemergence, scale 0 to 100
[11] = system: goosegrass (Eleusine indica); assay: as above; conditions: Preemergence, scale 0 to 100

CCOc1cc(=O)n(-c2ccc(F)cc2)nc1Cc1ccnc(C(F)(F)F)c1 [Compound 25, 5-ethoxy-2-(4-fluorophenyl)-6-[[2-(trifluoromethyl)-4-pyridinyl]methyl]-3 (2H)-pyridazinone] was tested, and the Plant response rating ([1]; 31 g ai/ha) was 35, the Plant response rating ([1]; 62 g ai/ha) was 85 and the Plant response rating ([1]; 125 g ai/ha) was 95. It also gave a Plant response rating ([1]; 250 g ai/ha) of 98, a pest or weed control at 31 g/ha ([2]; 31 g ai/ha) of 40% and a pest or weed control at 62 g/ha ([2]; 62 g ai/ha) of 85%. For the same compound, the pest or weed control at 125 g/ha ([2]; 125 g ai/ha) was 90%, the pest or weed control at 250 g/ha ([2]; 250 g ai/ha) was 90% and the pest or weed control at 31 g/ha ([3]; 31 g ai/ha) was 100%. The pest or weed control at 62 g/ha ([3]; 62 g ai/ha) was 100%, the pest or weed control at 125 g/ha ([3]; 125 g ai/ha) was 100% and the pest or weed control at 250 g/ha ([3]; 250 g ai/ha) was 100%. The pest or weed control at 31 g/ha ([4]; 31 g ai/ha) was 85%, the pest or weed control at 62 g/ha ([4]; 62 g ai/ha) was 90% and the pest or weed control at 125 g/ha ([4]; 125 g ai/ha) was 100%. It also gave a pest or weed control at 250 g/ha ([4]; 250 g ai/ha) of 100%, a Plant response rating ([5]; 31 g ai/ha) of 95 and a Plant response rating ([5]; 62 g ai/ha) of 95. For the same compound, the Plant response rating ([5]; 125 g ai/ha) was 100, the Plant response rating ([5]; 250 g ai/ha) was 98 and the pest or weed control at 31 g/ha ([6]; 31 g ai/ha) was 60%. It also gave a pest or weed control at 62 g/ha ([6]; 62 g ai/ha) of 85%, a pest or weed control at 125 g/ha ([6]; 125 g ai/ha) of 65% and a pest or weed control at 250 g/ha ([6]; 250 g ai/ha) of 95%. The pest or weed control at 31 g/ha ([7]; 31 g ai/ha) was 20%, the pest or weed control at 62 g/ha ([7]; 62 g ai/ha) was 40% and the pest or weed control at 125 g/ha ([7]; 125 g ai/ha) was 90%. It also gave a pest or weed control at 250 g/ha ([7]; 250 g ai/ha) of 90%, a Plant response rating ([8]; 62 g ai/ha) of 100 and a Plant response rating ([8]; 125 g ai/ha) of 100. The Plant response rating ([8]; 250 g ai/ha) was 100, the plant injury at 62 g/ha ([9]; 62 g ai/ha) was 40% and the plant injury at 125 g/ha ([9]; 125 g ai/ha) was 50%. For the same compound, the plant injury at 250 g/ha ([9]; 250 g ai/ha) was 70%, the “Plant response rating: Poinsettia, Wild” value ([10]; 8 g ai/ha) was 0 and the “Plant response rating: Poinsettia, Wild” value ([10]; 16 g ai/ha) was 0. For the same compound, the “Plant response rating: Poinsettia, Wild” value ([10]; 31 g ai/ha) was 0, the “Plant response rating: Poinsettia, Wild” value ([10]; 62 g ai/ha) was 50 and the “Plant response rating: Poinsettia, Wild” value ([10]; 125 g ai/ha) was 10. For the same compound, the “Plant response rating: Goosegrass” value ([11]; 8 g ai/ha) was 5, the “Plant response rating: Goosegrass” value ([11]; 16 g ai/ha) was 5 and the “Plant response rating: Goosegrass” value ([11]; 31 g ai/ha) was 15. For the same compound, the “Plant response rating: Goosegrass” value ([11]; 62 g ai/ha) was 75 and the “Plant response rating: Goosegrass” value ([11]; 125 g ai/ha) was 98.
